Our source for the IC50 values is patent publication US20090131468A1, “Bis-(Sulfonylamino) Derivatives in Therapy 065” (AstraZeneca AB, priority 2007, published 2009).

In the experiment the target is T1, human mPGES-1 (Homo sapiens, UniProt O14684).
T1 sequence (O14684 1-152): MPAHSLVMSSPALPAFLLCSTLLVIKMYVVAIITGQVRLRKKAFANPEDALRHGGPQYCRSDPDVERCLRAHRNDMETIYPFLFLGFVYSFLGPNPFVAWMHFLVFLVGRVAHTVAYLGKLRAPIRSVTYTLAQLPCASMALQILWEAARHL
In words: Microsomal prostaglandin E synthase biochemical assay. Particulars: microsome preparation containing human mPGES-1; PGH2 10.8 μM, GSH 2.5 mM, pH 6.8; PGE2 quantified by HTRF; average of at least n=2. Here is the method: Compounds were tested as inhibitors of microsomal prostaglandin E synthase activity in microsomal prostaglandin E synthase assays and whole cell assays. These assays measure prostaglandin E2 (PGE2) synthesis which is taken as a measure of prostaglandin E synthase activity. Microsomal prostaglandin E synthase biochemical assays used microsomal prostaglandin E synthase-1 in microsomal preparations. The source of the microsomes can be for example interleukin-1β-stimulated human A549 cells (which express human mPGES-1) or Sf9 cells transfected with plasmids encoding human mPGES-1 cDNA.
A solution of test compound was added to a diluted microsome preparation containing human mPGES-1 and pre-incubated for 15 minutes in potassium phosphate buffer pH 6.8 with cofactor glutathione (GSH). Corresponding solutions without test compound were used as positive controls, and corresponding solutions without test compound and without microsomes were used as negative controls. The enzymatic reaction was then started by addition of the substrate PGH2 in an organic solution (dry acetonitrile).
The reaction was stopped after one minute by adding an acidic solution (pH 1.9) of ferric chloride and citrate (final concentrations 7 mM and 47 mM respectively), by which the PGH2 was sequestered (the PGH2 is reduced to mainly 12-hydroxy heptadecatrineoic acid (12-HHT) which is not detected by the subsequent PGE2 detection step). The resulting solution was then pH neutralized by addition of potassium phosphate buffer, prior to diluting an aliquot of the resulting solution in a weak potassium phosphate buffer (50 mM, pH 6.8) containing 0.2% BSA (w/v). […] The PGE2 formed was quantified by use of a commercial HTRF based kit (catalogue #62PG2PEC or #62P2APEC from Cisbio International). 100% activity was defined as the PGE2 production in positive controls subtracted by the PGE2 production in the negative controls. IC50 values were then determined using standard procedures.
A general note: In TR-FRET formats the signal depends on donor and acceptor labels being close together.

As to `NS(=O)(=O)c1ccccc1S(=O)(=O)NC(=O)c1ccc(-c2cc3ccccc3o2)cn1` [Example 1, 5-Benzofuran-2-yl-N-(2-sulfamoylphenyl)sulfonyl-pyridine-2-carboxamide], 240 nM corresponded to half-maximal inhibition (IC50).

`NS(=O)(=O)c1ccccc1S(=O)(=O)NC(=O)c1ccc(-c2cccc(Cl)c2Cl)cn1` [Example 2, 5-(2,3-Dichlorophenyl)-N-(2-sulfamoylphenyl)sulfonyl-pyridine-2-carboxamide]: the IC50 (usually the midpoint of a concentration-inhibition curve) stood at 2000 nM. Against the preceding compound, the IC50 is about 8.3-fold higher.

`NS(=O)(=O)c1ccccc1S(=O)(=O)NC(=O)c1ccc(-c2cc3ccccc3o2)cc1` [Example 3, 4-Benzofuran-2-yl-N-(2-sulfamoylphenyl)sulfonyl-benzamide] showed a half-maximal inhibitory concentration (IC50) of 5.8 nM.

As to `NS(=O)(=O)c1ccccc1S(=O)(=O)NC(=O)c1ccc(-c2cc3ccccc3s2)cc1` [Example 4, 4-Benzothiophen-2-yl-N-(2-sulfamoylphenyl)sulfonyl-benzamide], 40 nM corresponded to half-maximal inhibition (IC50).

`NS(=O)(=O)c1ccccc1S(=O)(=O)NC(=O)c1ccc(-c2nc3ccccc3s2)cc1` [Example 5, 4-Benzothiazol-2-yl-N-(2-sulfamoylphenyl)sulfonyl-benzamide] registered an IC50 of 23 nM. This IC50 lies about 1.7-fold lower than the previous one.

Take `NS(=O)(=O)c1ccccc1S(=O)(=O)NC(=O)c1ccc(-c2nc3cnccc3o2)cc1` [Example 6, 4-(7-Oxa-3,9-diazabicyclo [4.3.0]nona-2,4,8,10-tetraen-8-yl)-N-(2-sulfamoylphenyl)-sulfonyl-benzamide]: the IC50 came out at 1100 nM.

`NS(=O)(=O)c1ccccc1S(=O)(=O)NC(=O)c1ccc(-c2nc3cccnc3o2)cc1` [Example 7, 4-(7Oxa-5,9-diazabicyclo [4.3.0]nona-2,4,8,10-tetraen-8-yl)-N-(2-sulfamoylphenyl)-sulfonyl-benzamide] gave a half-maximal inhibitory concentration (IC50) of 1000 nM. The IC50 values of the last two compounds are within 1.5-fold of each other.

Turning to `NS(=O)(=O)c1ccccc1S(=O)(=O)NC(=O)c1ccc(-c2nc3ccccc3o2)cc1` [Example 8, 4-Benzooxazol-2-yl-N-(2-sulfamoylphenyl)sulfonyl-benzamide], the IC50 worked out at 86 nM.

Regarding `NS(=O)(=O)c1ccccc1S(=O)(=O)NC(=O)c1ccc2cc(-c3ccccc3)oc2c1` [Example 9, 2-Phenyl-N-(2-sulfamoylphenyl)sulfonyl-benzofuran-6-carboxamide], half-maximal inhibition (IC50) required 78 nM.

`NS(=O)(=O)c1ccccc1S(=O)(=O)NC(=O)c1ccc(Br)cc1` [Example 10, 4-Bromo-N-(2-sulfamoylphenyl)sulfonyl-benzamide] gave an IC50 of 440 nM.

Compound `NS(=O)(=O)c1ccccc1S(=O)(=O)NC(=O)c1ccc(Br)cc1Cl` [Example 11, 4-Bromo-2-chloro-N-(2-sulfamoylphenyl)sulfonyl-benzamide] registered an IC50 of 5500 nM.

On to `Cc1cc(C(=O)NS(=O)(=O)c2ccccc2S(N)(=O)=O)ccc1Br` [Example 12, 4-Bromo-3-methyl-N-(2-sulfamoylphenyl)sulfonyl-benzamide], for which the IC50 worked out at 170 nM.

Turning to `NS(=O)(=O)c1ccccc1S(=O)(=O)NC(=O)c1ccc(Br)c(F)c1` [Example 13, 4-Bromo-3-fluoro-N-(2-sulfamoylphenyl)sulfonyl-benzamide], 290 nM corresponded to half-maximal inhibition (IC50).

The compound `NS(=O)(=O)c1ccccc1S(=O)(=O)NC(=O)c1ccc(Br)cc1F` [Example 14, 4-Bromo-2-fluoro-N-(2-sulfamoylphenyl)sulfonyl-benzamide] showed an IC50 of 1400 nM. Compared with the last compound, the IC50 is about 4.8-fold higher.

`Cc1cc(Br)ccc1C(=O)NS(=O)(=O)c1ccccc1S(N)(=O)=O` [Example 15, 4-Bromo-2-methyl-N-(2-sulfamoylphenyl)sulfonyl-benzamide] had an IC50 of 2000 nM.

`NS(=O)(=O)c1ccccc1S(=O)(=O)NC(=O)CC12CC3CC(CC(C3)C1)C2` [Example 16, 2-(1-Adamantyl)-N-(2-sulfamoylphenyl)sulfonyl-acetamide] gave an IC50 of 5200 nM.

On to `NS(=O)(=O)c1ccccc1S(=O)(=O)NC(=O)C1CC2CCC1C2` (stereo not drawn) [Example 17, N-(2-Sulfamoylphenyl)sulfonylnorbornane-2-carboxamide], for which half-maximal inhibition (IC50) was put at 9800 nM. Against the preceding compound, the IC50 is about 1.9-fold higher.

Take `NS(=O)(=O)c1ccccc1S(=O)(=O)NC(=O)C1(c2ccccc2)CCCCC1` [Example 18, 1-Phenyl-N-(2-sulfamoylphenyl)sulfonyl-cyclohexane-1-carboxamide]: the IC50 was 100 nM.

`NS(=O)(=O)c1ccccc1S(=O)(=O)NC(=O)c1cccc(OC(F)F)c1` [Example 19, 3-(Difluoromethoxy)-N-(2-sulfamoylphenyl)sulfonyl-benzamide]: half-maximal inhibition (IC50) required 8700 nM.

`NS(=O)(=O)c1ccccc1S(=O)(=O)NC(=O)c1ccc(F)c(Br)c1` [Example 20, 3-Bromo-4-fluoro-N-(2-sulfamoylphenyl)sulfonyl-benzamide] yielded an IC50 of 590 nM.

Turning to `NS(=O)(=O)c1ccccc1S(=O)(=O)NC(=O)c1cccc(COCC(F)(F)C(F)F)c1` [Example 21, N-(2-Sulfamoylphenyl)sulfonyl-3-(2,2,3,3-tetrafluoropropoxymethyl)benzamide], 2200 nM corresponded to half-maximal inhibition (IC50). Compared with the last compound, the IC50 is about 3.7-fold higher.

In turn, `Cc1nc(-c2cccc(C(F)(F)F)c2)sc1C(=O)NS(=O)(=O)c1ccccc1S(N)(=O)=O` [Example 22, 4-Methyl-N-(2-sulfamoylphenyl)sulfonyl-2-[3-(trifluoromethyl)phenyl]1,3-thiazole-5-carboxamide] yielded an IC50 of 30 nM.

In turn, `NS(=O)(=O)c1ccccc1S(=O)(=O)NC(=O)c1ccc(Cl)cc1F` [Example 23, 4-Chloro-2-fluoro-N-(2-sulfamoylphenyl)sulfonyl-benzamide] returned an IC50 of 1000 nM.

`NS(=O)(=O)c1ccccc1S(=O)(=O)NC(=O)c1ccc(Cl)cc1Cc1ccccc1` [Example 24, 2-Benzyl-4-chloro-N-(2-sulfamoylphenyl)sulfonyl-benzamide] yielded an IC50 of 5400 nM.

With `NS(=O)(=O)c1ccccc1S(=O)(=O)NC(=O)c1ccc2oc(-c3ccccc3)cc2c1` [Example 25, 2-Phenyl-N-(2-sulfamoylphenyl)sulfonyl-benzofuran-5-carboxamide], inhibition was half-maximal at 20 nM (IC50).

`Cc1nc(-c2ccc(C(F)(F)F)cc2)sc1C(=O)NS(=O)(=O)c1ccccc1S(N)(=O)=O` [Example 26, 4-Methyl-N-(2-sulfamoylphenyl)sulfonyl-2-[4-(trifluoromethyl)phenyl]1,3-thiazole-5-carboxamide] registered an IC50 of 120 nM.

For the compound `Cc1nc(-c2ccc(Cl)cc2)sc1C(=O)NS(=O)(=O)c1ccccc1S(N)(=O)=O` [Example 28, 2-(4-Chlorophenyl)-4-methyl-N-(2-sulfamoylphenyl)sulfonyl-1,3-thiazole-5-carboxamide], it took 44 nM to reach half-maximal inhibition (IC50).

With `Cc1nc(-c2ccccc2)sc1C(=O)NS(=O)(=O)c1ccccc1S(N)(=O)=O` [Example 29, 4-Methyl-2-phenyl-N-(2-sulfamoylphenyl)sulfonyl-1,3-thiazole-5-carboxamide], the IC50 is 290 nM.

With `NS(=O)(=O)c1ccccc1S(=O)(=O)NC(=O)c1ccc(OCc2ccccc2)cc1` [Example 30, 4-Phenylmethoxy-N-(2-sulfamoylphenyl)sulfonyl-benzamide], half-maximal inhibition (IC50) required 160 nM.

`NS(=O)(=O)c1ccccc1S(=O)(=O)NC(=O)c1ccc(-c2ccccc2)cc1` [Example 31, 4-Phenyl-N-(2-sulfamoylphenyl)sulfonyl-benzamide] yielded an IC50 of 320 nM.

Turning to `CC(C)(C)c1ccc(C(=O)NS(=O)(=O)c2ccccc2S(N)(=O)=O)cc1` [Example 32, N-(2-Sulfamoylphenyl)sulfonyl-4-tert-butyl-benzamide], the IC50 turned out to be 1500 nM.

Compound `Cn1c(C(=O)NS(=O)(=O)c2ccccc2S(N)(=O)=O)cc2ccccc21` [Example 33, 1-Methyl-N-(2-sulfamoylphenyl)sulfonyl-indole-2-carboxamide] returned a half-inhibitory concentration (IC50) of 4600 nM.

Regarding `NS(=O)(=O)c1ccccc1S(=O)(=O)NC(=O)c1ccc(-c2ccccn2)s1` [Example 34, 5-Pyridin-2-yl-N-(2-sulfamoylphenyl)sulfonyl-thiophene-2-carboxamide], the midpoint of inhibition, the IC50, lay at 1600 nM. Against the preceding compound, the IC50 is about 2.9-fold lower.

On to `NS(=O)(=O)c1ccccc1S(=O)(=O)NC(=O)c1ccc(-c2ccccc2)s1` [Example 35, 5-Phenyl-N-(2-sulfamoylphenyl)sulfonyl-thiophene-2-carboxamide], for which the IC50 worked out at 530 nM.

The compound `NS(=O)(=O)c1ccccc1S(=O)(=O)NC(=O)c1ccc(-c2ccc(Cl)c(Cl)c2)o1` [Example 36, 5-(3,4-Dichlorophenyl)-N-(2-sulfamoylphenyl)sulfonyl-furan-2-carboxamide] gave an IC50 of 280 nM. Against the preceding compound, the IC50 is about 1.9-fold lower.

`NS(=O)(=O)c1ccccc1S(=O)(=O)NC(=O)c1ccc(-c2cccc(C(F)(F)F)c2)o1` [Example 37, N-(2-Sulfamoylphenyl)sulfonyl-5-[3-(trifluoromethyl)phenyl]furan-2-carboxamide]: the IC50 was determined as 1100 nM.
